{
  "source": "PubChem BioAssay (NCI)",
  "test_in_all_cases": "growth of human tumour cells (NCI), 48 h",
  "key": {"786-0 renal": {"test_system": "786-0 renal"}, "A498 renal": {"test_system": "A498 renal"}, "A549 NSCLC": {"test_system": "A549 NSCLC"}, "ACHN renal": {"test_system": "ACHN renal"}, "BT-549 breast": {"test_system": "BT-549 breast"}, "CAKI-1 renal": {"test_system": "CAKI-1 renal"}, "CCRF-CEM leukemia": {"test_system": "CCRF-CEM leukemia"}, "COLO 205 colon": {"test_system": "COLO 205 colon"}, "DU-145 prostate": {"test_system": "DU-145 prostate"}, "EKVX NSCLC": {"test_system": "EKVX NSCLC"}, "HCC-2998 colon": {"test_system": "HCC-2998 colon"}, "HCT-116 colon": {"test_system": "HCT-116 colon"}, "HCT-15 colon": {"test_system": "HCT-15 colon"}, "HL-60(TB) leukemia": {"test_system": "HL-60(TB) leukemia"}, "HOP-62 NSCLC": {"test_system": "HOP-62 NSCLC"}, "HOP-92 NSCLC": {"test_system": "HOP-92 NSCLC"}, "HS 578T breast": {"test_system": "HS 578T breast"}, "HT29 colon": {"test_system": "HT29 colon"}, "IGROV1 ovarian": {"test_system": "IGROV1 ovarian"}, "K-562 leukemia": {"test_system": "K-562 leukemia"}, "KM12 colon": {"test_system": "KM12 colon"}, "LOX IMVI melanoma": {"test_system": "LOX IMVI melanoma"}, "M14 melanoma": {"test_system": "M14 melanoma"}, "MALME-3M melanoma": {"test_system": "MALME-3M melanoma"}, "MCF7 breast": {"test_system": "MCF7 breast"}, "MDA-MB-231 breast": {"test_system": "MDA-MB-231 breast"}, "MDA-MB-435": {"test_system": "MDA-MB-435"}, "MDA-MB-468 breast": {"test_system": "MDA-MB-468 breast"}},
  "note": "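Cultured in 96-well plates, cells were exposed to test compound for 48 hours across five concentrations. The concentration for 50% growth inhibition is given as GI50. TGI: concentration producing complete growth inhibition.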",
  "data": [
    {"smiles": "COc1cc(/C=C/C(=O)c2cnn(-c3cc(=O)[nH]c4ccccc34)c2C)cc(OC)c1OC", "values": [
      {"measurement": "GI50", "setting": "786-0 renal", "value": 4.56, "unit": "µM"},
      {"measurement": "TGI", "setting": "786-0 renal", "value": 28.9, "unit": "µM"},
      {"measurement": "GI50", "setting": "A498 renal", "value": 34.2, "unit": "µM"},
      {"measurement": "TGI", "setting": "A498 renal", "value": "> 100", "unit": "µM"},
      {"measurement": "GI50", "setting": "A549 NSCLC", "value": 3.78, "unit": "µM"},
      {"measurement": "TGI", "setting": "A549 NSCLC", "value": "> 100", "unit": "µM"},
      {"measurement": "GI50", "setting": "ACHN renal", "value": 3.72, "unit": "µM"},
      {"measurement": "TGI", "setting": "ACHN renal", "value": 25.5, "unit": "µM"},
      {"measurement": "GI50", "setting": "BT-549 breast", "value": 3.48, "unit": "µM"},
      {"measurement": "TGI", "setting": "BT-549 breast", "value": 24.9, "unit": "µM"},
      {"measurement": "GI50", "setting": "CAKI-1 renal", "value": 4.05, "unit": "µM"},
      {"measurement": "TGI", "setting": "CAKI-1 renal", "value": "> 100", "unit": "µM"},
      {"measurement": "GI50", "setting": "CCRF-CEM leukemia", "value": 2.58, "unit": "µM"},
      {"measurement": "TGI", "setting": "CCRF-CEM leukemia", "value": 21.5, "unit": "µM"},
      {"measurement": "GI50", "setting": "COLO 205 colon", "value": 3.71, "unit": "µM"},
      {"measurement": "TGI", "setting": "COLO 205 colon", "value": 17.5, "unit": "µM"},
      {"measurement": "GI50", "setting": "DU-145 prostate", "value": 4.21, "unit": "µM"},
      {"measurement": "TGI", "setting": "DU-145 prostate", "value": "> 100", "unit": "µM"},
      {"measurement": "GI50", "setting": "EKVX NSCLC", "value": 3.42, "unit": "µM"},
      {"measurement": "TGI", "setting": "EKVX NSCLC", "value": "> 100", "unit": "µM"},
      {"measurement": "GI50", "setting": "HCC-2998 colon", "value": 4, "unit": "µM"},
      {"measurement": "TGI", "setting": "HCC-2998 colon", "value": "> 100", "unit": "µM"},
      {"measurement": "GI50", "setting": "HCT-116 colon", "value": 7.13, "unit": "µM"},
      {"measurement": "TGI", "setting": "HCT-116 colon", "value": "> 100", "unit": "µM"},
      {"measurement": "GI50", "setting": "HCT-15 colon", "value": 3.23, "unit": "µM"},
      {"measurement": "TGI", "setting": "HCT-15 colon", "value": 26.1, "unit": "µM"},
      {"measurement": "GI50", "setting": "HL-60(TB) leukemia", "value": 3.52, "unit": "µM"},
      {"measurement": "TGI", "setting": "HL-60(TB) leukemia", "value": "> 100", "unit": "µM"},
      {"measurement": "GI50", "setting": "HOP-62 NSCLC", "value": 4.43, "unit": "µM"},
      {"measurement": "TGI", "setting": "HOP-62 NSCLC", "value": 27.1, "unit": "µM"},
      {"measurement": "GI50", "setting": "HOP-92 NSCLC", "value": 7.59, "unit": "µM"},
      {"measurement": "TGI", "setting": "HOP-92 NSCLC", "value": 51.8, "unit": "µM"},
      {"measurement": "GI50", "setting": "HS 578T breast", "value": 4.54, "unit": "µM"},
      {"measurement": "TGI", "setting": "HS 578T breast", "value": "> 100", "unit": "µM"},
      {"measurement": "GI50", "setting": "HT29 colon", "value": 3.14, "unit": "µM"},
      {"measurement": "TGI", "setting": "HT29 colon", "value": "> 100", "unit": "µM"},
      {"measurement": "GI50", "setting": "IGROV1 ovarian", "value": 3, "unit": "µM"},
      {"measurement": "TGI", "setting": "IGROV1 ovarian", "value": 16.3, "unit": "µM"},
      {"measurement": "GI50", "setting": "K-562 leukemia", "value": 2.68, "unit": "µM"},
      {"measurement": "TGI", "setting": "K-562 leukemia", "value": "> 100", "unit": "µM"},
      {"measurement": "GI50", "setting": "KM12 colon", "value": 3.83, "unit": "µM"},
      {"measurement": "TGI", "setting": "KM12 colon", "value": "> 100", "unit": "µM"},
      {"measurement": "GI50", "setting": "LOX IMVI melanoma", "value": 2.1, "unit": "µM"},
      {"measurement": "TGI", "setting": "LOX IMVI melanoma", "value": 5.64, "unit": "µM"},
      {"measurement": "GI50", "setting": "M14 melanoma", "value": 4.45, "unit": "µM"},
      {"measurement": "TGI", "setting": "M14 melanoma", "value": "> 100", "unit": "µM"},
      {"measurement": "GI50", "setting": "MALME-3M melanoma", "value": 5.84, "unit": "µM"},
      {"measurement": "TGI", "setting": "MALME-3M melanoma", "value": "> 100", "unit": "µM"},
      {"measurement": "GI50", "setting": "MCF7 breast", "value": 2.88, "unit": "µM"},
      {"measurement": "TGI", "setting": "MCF7 breast", "value": "> 100", "unit": "µM"},
      {"measurement": "GI50", "setting": "MDA-MB-231 breast", "value": 3.06, "unit": "µM"},
      {"measurement": "TGI", "setting": "MDA-MB-231 breast", "value": 14.1, "unit": "µM"},
      {"measurement": "GI50", "setting": "MDA-MB-435", "value": 3.34, "unit": "µM"},
      {"measurement": "TGI", "setting": "MDA-MB-435", "value": "> 100", "unit": "µM"},
      {"measurement": "GI50", "setting": "MDA-MB-468 breast", "value": 2.22, "unit": "µM"},
      {"measurement": "TGI", "setting": "MDA-MB-468 breast", "value": 6.06, "unit": "µM"}
    ]}
  ]
}
